According to PubChem BioAssay AID977627 (Broad Institute, 2014):
Results filed as inconclusive are left out.

Test system: E. coli H38 humanized ribosome GFP strain, fluorescence, 24 h
Assay: E. coli strain growth, wild-type against H38 humanized mutant – H38 mutant GFP vs wild-type RFP, cherry-pick, dose response (AID 977627)
Conditions: measured here: total growth OD600

Row | Structure (SMILES) | AC50 [µM]
1 | CC1(Cc2ccccc2C#N)C(=O)Nc2cc(-c3ccccc3Cl)ccc21 (configuration not stated) | 41.9
2 | COC(=O)c1c(NC(=O)CCC(=O)O)sc(Cc2ccccc2)c1C | > 100
